ChEMBL document CHEMBL1201862, “PubChem BioAssay data set” (2004)
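These data come from cells grown in 96-well plates and exposed to compound for 48 hours at five concentrations. At the GI50, growth is halved.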 Calls of active or inactive are those of the source. No stated cut-off is given here; in the data, active = GI50 up to about 1.1 µM and inactive = higher.

How the values were obtained:
Assay in all cases: NCI-60 cell line screen, 48 h
786-0 = system: 786-0
A549 = system: A549
COLO 205 = system: COLO 205
DMS-114 = system: DMS-114
DMS-273 = system: DMS-273
EKVX = system: EKVX
HCC 2998 = system: HCC 2998
HCT-116 = system: HCT-116
HCT-15 = system: HCT-15
HOP-92 = system: HOP-92
HT-29 = system: HT-29
IGROV-1 = system: IGROV-1
K562 = system: K562
KM-20L2 = system: KM-20L2
KM12 = system: KM12
LXFL 529 = system: LXFL 529
M19-MEL = system: M19-MEL
MOLT-4 = system: MOLT-4
Malme-3M = system: Malme-3M
NCI-H226 = system: NCI-H226
NCI-H23 = system: NCI-H23
NCI-H522 = system: NCI-H522
OVCAR-3 = system: OVCAR-3
OVCAR-4 = system: OVCAR-4
OVCAR-5 = system: OVCAR-5
OVCAR-8 = system: OVCAR-8
RPMI-8226 = system: RPMI-8226
RXF 393 = system: RXF 393
SF-268 = system: SF-268
SF-295 = system: SF-295
SF-539 = system: SF-539
SK-MEL-28 = system: SK-MEL-28
SK-MEL-2 = system: SK-MEL-2
SK-MEL-5 = system: SK-MEL-5
SK-OV-3 = system: SK-OV-3
SN12C = system: SN12C
SNB-19 = system: SNB-19
SNB-75 = system: SNB-75
SNB-78 = system: SNB-78
SR = system: SR
SW-620 = system: SW-620
TK-10 = system: TK-10
U-251 = system: U-251
UACC-257 = system: UACC-257
UACC-62 = system: UACC-62
UO-31 = system: UO-31
A498 = system: A498
ACHN = system: ACHN
CAKI-1 = system: CAKI-1
CCRF-CEM = system: CCRF-CEM
DLD-1 = system: DLD-1
HL-60 = system: HL-60
HOP-62 = system: HOP-62
LOX IMVI = system: LOX IMVI
M14 = system: M14
NCI-H460 = system: NCI-H460

In the case of `CCOC(=O)c1cnc2oc(-c3ccc(OC)cc3)nn2c1=O`, the GI50 (786-0) is reported as > 100 µM (inactive), the GI50 (A549) is reported as > 100 µM (inactive) and the GI50 (COLO 205) is reported as > 100 µM (inactive). The GI50 (DMS-114) was > 100 µM (inactive), the GI50 (DMS-273) was > 100 µM (inactive) and the GI50 (EKVX) was > 100 µM (inactive). The GI50 (HCC 2998) was > 100 µM (inactive), the GI50 (HCT-116) was > 100 µM (inactive) and the GI50 (HCT-15) was greater than 100 µM. The GI50 (HOP-92) was 29.5 µM (inactive), the GI50 (HT-29) was > 100 µM (inactive) and the GI50 (IGROV-1) was > 100 µM (inactive). For the same molecule, the GI50 (K562) was > 100 µM (inactive), the GI50 (KM-20L2) was > 100 µM (inactive) and the GI50 (KM12) was > 100 µM (inactive). For the same molecule, the GI50 (LXFL 529) was > 100 µM (inactive), the GI50 (M19-MEL) was > 100 µM (inactive) and the GI50 (MOLT-4) was > 100 µM (inactive). For the same molecule, the GI50 (Malme-3M) was > 100 µM (inactive), the GI50 (NCI-H226) was > 100 µM (inactive) and the GI50 (NCI-H23) was > 100 µM (inactive). The GI50 (NCI-H522) was 79.1 µM (inactive), the GI50 (OVCAR-3) was > 100 µM (inactive) and the GI50 (OVCAR-4) was > 100 µM (inactive). For the same molecule, the GI50 (OVCAR-5) was > 100 µM (inactive), the GI50 (OVCAR-8) was > 100 µM (inactive) and the GI50 (RPMI-8226) was > 100 µM (inactive). The GI50 (RXF 393) was 93.1 µM (inactive), the GI50 (SF-268) was > 100 µM (inactive) and the GI50 (SF-295) was > 100 µM (inactive). For the same molecule, the GI50 (SF-539) was > 100 µM (inactive), the GI50 (SK-MEL-28) was > 100 µM (inactive) and the GI50 (SK-MEL-2) was > 100 µM (inactive). The GI50 (SK-MEL-5) was > 100 µM (inactive), the GI50 (SK-OV-3) was > 100 µM (inactive) and the GI50 (SN12C) was > 100 µM (inactive). For the same molecule, the GI50 (SNB-19) was > 100 µM (inactive), the GI50 (SNB-75) was 45.3 µM (inactive) and the GI50 (SNB-78) was > 100 µM (inactive). For the same molecule, the GI50 (SR) was > 10 µM (inactive), the GI50 (SW-620) was > 100 µM (inactive) and the GI50 (TK-10) was > 100 µM (inactive). The GI50 (U-251) was > 100 µM (inactive), the GI50 (UACC-257) was > 100 µM (inactive) and the GI50 (UACC-62) was 71.1 µM (inactive). For the same molecule, the GI50 (UO-31) was > 100 µM (inactive).

For `CCCCC#COS(=O)(=O)c1ccc(C)cc1`, the GI50 (786-0) was > 100 µM (inactive), the GI50 (A498) was > 100 µM (inactive) and the GI50 (A549) was 44.9 µM (inactive). For the same molecule, the GI50 (ACHN) was 71.1 µM (inactive), the GI50 (CAKI-1) was > 100 µM (inactive) and the GI50 (CCRF-CEM) was 30.5 µM (inactive). The GI50 (COLO 205) was > 100 µM (inactive), the GI50 (DLD-1) was 57.9 µM (inactive) and the GI50 (DMS-114) was 44.1 µM (inactive). For the same molecule, the GI50 (EKVX) was 56.6 µM (inactive), the GI50 (HCC 2998) was > 100 µM (inactive) and the GI50 (HCT-116) was 82.8 µM (inactive). The GI50 (HCT-15) was greater than 100 µM, the GI50 (HL-60) was > 100 µM (inactive) and the GI50 (HOP-62) was > 100 µM (inactive). For the same molecule, the GI50 (HT-29) was > 100 µM (inactive), the GI50 (IGROV-1) was > 100 µM (inactive) and the GI50 (K562) was 45.3 µM (inactive). The GI50 (KM-20L2) was 75.9 µM (inactive), the GI50 (KM12) was 84.9 µM (inactive) and the GI50 (LOX IMVI) was > 100 µM (inactive). The GI50 (LXFL 529) was 64 µM (inactive), the GI50 (M14) was > 100 µM (inactive) and the GI50 (M19-MEL) was 69.7 µM (inactive). The GI50 (MOLT-4) was 88.1 µM (inactive), the GI50 (Malme-3M) was > 100 µM (inactive) and the GI50 (NCI-H226) was 14.7 µM (inactive). The GI50 (NCI-H23) was 92.9 µM (inactive), the GI50 (NCI-H460) was 79.3 µM (inactive) and the GI50 (NCI-H522) was 54.1 µM (inactive). The GI50 (OVCAR-3) was > 100 µM (inactive), the GI50 (OVCAR-4) was 65.9 µM (inactive) and the GI50 (OVCAR-5) was > 100 µM (inactive). For the same molecule, the GI50 (OVCAR-8) was > 100 µM (inactive), the GI50 (RPMI-8226) was 46.2 µM (inactive) and the GI50 (SF-268) was > 100 µM (inactive). For the same molecule, the GI50 (SF-295) was > 100 µM (inactive), the GI50 (SF-539) was > 100 µM (inactive) and the GI50 (SK-MEL-2) was > 100 µM (inactive). For the same molecule, the GI50 (SK-MEL-5) was > 100 µM (inactive), the GI50 (SK-OV-3) was 88.7 µM (inactive) and the GI50 (SN12C) was > 100 µM (inactive). The GI50 (SNB-19) was > 100 µM (inactive), the GI50 (SNB-78) was > 100 µM (inactive) and the GI50 (SR) was 53 µM (inactive). For the same molecule, the GI50 (SW-620) was > 100 µM (inactive), the GI50 (U-251) was 86.5 µM (inactive) and the GI50 (UACC-257) was > 100 µM (inactive). The GI50 (UACC-62) was > 100 µM (inactive) and the GI50 (UO-31) was > 100 µM (inactive).
